Consider 2 compounds from ChEMBL document CHEMBL5325465, “Identification of small-molecule inhibitors of human MUS81-EME1/2 by FRET-based high-throughput screening” (Bioorg Med Chem, 2023).

The structures appear in SMILES notation. The source made the active and inactive calls. No cut-off for these calls is given here.

The IC50 is the midpoint of a concentration-inhibition curve. A low value points to greater potency in that assay. The Kd is the constant that tells how readily two partners part at equilibrium.

For assay [1], the target named is T1, MUS81-ECE2 (Homo sapiens, UniProt P0DPD6+Q96NY9).
T1 sequence (P0DPD6 whole entry): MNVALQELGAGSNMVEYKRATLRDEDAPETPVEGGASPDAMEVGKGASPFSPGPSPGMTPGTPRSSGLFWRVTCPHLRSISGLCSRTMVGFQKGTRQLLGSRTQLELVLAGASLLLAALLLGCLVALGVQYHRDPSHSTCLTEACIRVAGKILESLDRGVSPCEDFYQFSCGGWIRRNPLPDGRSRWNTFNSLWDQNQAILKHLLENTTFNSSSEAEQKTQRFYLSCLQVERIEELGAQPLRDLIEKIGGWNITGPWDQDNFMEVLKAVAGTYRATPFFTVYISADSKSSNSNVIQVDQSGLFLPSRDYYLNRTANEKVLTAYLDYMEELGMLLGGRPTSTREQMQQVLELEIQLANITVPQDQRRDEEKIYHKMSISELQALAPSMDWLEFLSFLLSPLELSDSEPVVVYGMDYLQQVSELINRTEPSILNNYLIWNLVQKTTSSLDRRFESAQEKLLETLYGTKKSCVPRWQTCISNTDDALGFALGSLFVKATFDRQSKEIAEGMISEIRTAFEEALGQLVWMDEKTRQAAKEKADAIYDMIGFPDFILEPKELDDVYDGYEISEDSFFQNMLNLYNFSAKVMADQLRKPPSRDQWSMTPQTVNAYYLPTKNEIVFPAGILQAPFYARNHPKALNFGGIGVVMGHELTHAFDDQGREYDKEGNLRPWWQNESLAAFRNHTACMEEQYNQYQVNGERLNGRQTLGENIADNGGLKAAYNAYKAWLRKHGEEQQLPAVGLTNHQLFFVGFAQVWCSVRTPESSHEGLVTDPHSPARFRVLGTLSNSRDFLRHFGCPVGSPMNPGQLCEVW
T1 sequence (Q96NY9 whole entry): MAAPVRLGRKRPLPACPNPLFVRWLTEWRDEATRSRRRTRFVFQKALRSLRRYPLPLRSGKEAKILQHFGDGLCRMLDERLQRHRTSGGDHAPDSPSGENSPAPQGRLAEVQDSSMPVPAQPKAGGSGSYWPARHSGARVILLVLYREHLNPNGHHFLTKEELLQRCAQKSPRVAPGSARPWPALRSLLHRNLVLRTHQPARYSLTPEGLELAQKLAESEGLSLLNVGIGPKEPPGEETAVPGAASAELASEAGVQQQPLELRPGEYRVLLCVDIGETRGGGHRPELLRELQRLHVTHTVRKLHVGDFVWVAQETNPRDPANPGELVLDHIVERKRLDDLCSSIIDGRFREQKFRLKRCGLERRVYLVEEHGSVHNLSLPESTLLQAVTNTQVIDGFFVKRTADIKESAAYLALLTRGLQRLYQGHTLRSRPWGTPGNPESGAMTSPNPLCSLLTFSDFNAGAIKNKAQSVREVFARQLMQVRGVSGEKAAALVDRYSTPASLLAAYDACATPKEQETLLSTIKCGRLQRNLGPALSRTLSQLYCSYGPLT
Put plainly: Inhibition of human GST-tagged MUS81-[…] expressed in Escherichia coli BL21(DE3)Rosetta2 cells incubated for 15 mins by FRET based assay.

Assay [2] concerns the target T2, MUS81-ECE1 (Homo sapiens) (UniProt P42892+Q96NY9). Put plainly: Inhibition of human GST-tagged MUS81-[…] expressed in Escherichia coli BL21(DE3)Rosetta2 cells using 3' FLAP as substrate incubated for 15 mins by FRET based assay. Particulars: dose 0.2-20 µM.
For assay [3], the target named is T2, MUS81-ECE1 (Homo sapiens). The assay can be described thus: Inhibition of human GST-tagged MUS81-[…] expressed in Escherichia coli BL21(DE3)Rosetta2 cells using nDS as substrate incubated for 15 mins by FRET based assay. The settings on record: dose 0.2-20 µM.
For assay [4], the target named is T2, MUS81-ECE1 (Homo sapiens). The assay can be described thus: Inhibition of human GST-tagged MUS81-[…] expressed in Escherichia coli BL21(DE3)Rosetta2 cells using nHJ as substrate incubated for 15 mins by FRET based assay. The settings on record: dose 0.2-20 µM.
Assay [5] addresses T3, MUS81-ECE2 (Homo sapiens) (UniProt P0DPD6+Q96NY9). The assay can be described thus: Inhibition of human GST-tagged MUS81-[…] expressed in Escherichia coli BL21(DE3)Rosetta2 cells using 3' FLAP as substrate incubated for 15 mins by FRET based assay. The settings on record: dose 0.2-20 µM.
Assay [6] concerns the target T3, MUS81-ECE2 (Homo sapiens). Put plainly: Inhibition of human GST-tagged MUS81-[…] expressed in Escherichia coli BL21(DE3)Rosetta2 cells using nDS as substrate incubated for 15 mins by FRET based assay. Particulars: dose 0.2-20 µM.
Assay [7] has as its target T3, MUS81-ECE2 (Homo sapiens). The assay can be described thus: Inhibition of human GST-tagged MUS81-[…] expressed in Escherichia coli BL21(DE3)Rosetta2 cells using nHJ as substrate incubated for 15 mins by FRET based assay. Particulars: dose 0.2-20 µM.
Assay [8] deals with T2, MUS81-ECE1 (Homo sapiens). Put plainly: Binding affinity to human GST-tagged MUS81-[…] expressed in Escherichia coli BL21(DE3)Rosetta2 cells assessed as Kon by Surface plasmon resonance analysis.
In assay [9] the target is T2, MUS81-ECE1 (Homo sapiens). The assay can be described thus: Binding affinity to human GST-tagged MUS81-[…] expressed in Escherichia coli BL21(DE3)Rosetta2 cells assessed as Koff by Surface plasmon resonance analysis. A general note: Surface plasmon resonance follows binding to a sensor surface in real time, without labels.
Assay [10] addresses T3, MUS81-ECE2 (Homo sapiens). Put plainly: Binding affinity to human GST-tagged MUS81-[…] expressed in Escherichia coli BL21(DE3)Rosetta2 cells assessed as Kon by Surface plasmon resonance analysis.
For assay [11], the target named is T3, MUS81-ECE2 (Homo sapiens). The assay can be described thus: Binding affinity to human GST-tagged MUS81-[…] expressed in Escherichia coli BL21(DE3)Rosetta2 cells assessed as Koff by Surface plasmon resonance analysis.
In assay [12] the target is T1, MUS81-ECE2. The assay can be described thus: Binding affinity to human GST-tagged MUS81-[…] expressed in Escherichia coli BL21(DE3)Rosetta2 cells assessed as dissociation constant by Surface plasmon resonance analysis.
Assay [13] addresses T2, MUS81-ECE1 (Homo sapiens). The assay can be described thus: Binding affinity to human GST-tagged MUS81-[…] expressed in Escherichia coli BL21(DE3)Rosetta2 cells at more than 5 uM using nDS as substrate incubated for 30 mins by electrophoretic mobility shift assay. A general note: In EMSA bound probe runs differently from free probe, usually more slowly.
In assay [14] the test system is HeLa. Put plainly: Inhibition of bleomycin-induced DNA-double stranded breaks in human HeLa cells assessed as reduction in gammaH2AX phosphorylation at serine 139 residue at 20 uM incubated for 1 hr by hoechst 33342 staining based immunofluorescence microscopic analysis. The assay is classed as functional, cell-based.
Assay [15] concerns HeLa. The assay can be described thus: Inhibition of bleomycin-induced DNA-double stranded breaks in human HeLa cells assessed as reduction in gammaH2AX level by Western blot analysis. The assay is classed as functional, cell-based.
The test system of assay [16] is MDA-MB-231. The assay can be described thus: Chemosensitivity of bleomycin-treated human MDA-MB-231 cells assessed as reduction in cell viability at 0.1 to 100 uM incubated for 24 hrs CCK-8 assay. It counts as functional, cell-based. The settings on record: dose 0.1-100 µM.
Assay [17] has as its system MDA-MB-231. The assay can be described thus: Chemosensitivity of cisplatin-treated human MDA-MB-231 cells assessed as reduction in cell viability at 0.1 to 100 uM incubated for 24 hrs CCK-8 assay. It counts as functional, cell-based. The settings on record: dose 0.1-100 µM.
Assay [18] has as its system HeLa. The assay can be described thus: Chemosensitivity of bleomycin-treated human HeLa cells assessed as reduction in cell viability at 0.1 to 100 uM incubated for 24 hrs CCK-8 assay. Particulars: dose 0.1-100 µM. It counts as functional, cell-based. (In general: Formazan colour is commonly taken as a measure of viable cells.)
In assay [19] the test system is HeLa. The assay can be described thus: Chemosensitivity of cisplatin-treated human HeLa cells assessed as reduction in cell viability at 0.1 to 100 uM incubated for 24 hrs CCK-8 assay. The assay is classed as functional, cell-based. The settings on record: dose 0.1-100 µM.
Assay [20] concerns HepG2. The assay can be described thus: Chemosensitivity of bleomycin-treated human HepG2 cells assessed as reduction in cell viability at 0.1 to 100 uM incubated for 24 hrs CCK-8 assay. It counts as functional, cell-based. Particulars: dose 0.1-100 µM.
Assay [21] has as its system HepG2. Put plainly: Chemosensitivity of cisplatin-treated human HepG2 cells assessed as reduction in cell viability at 0.1 to 100 uM incubated for 24 hrs CCK-8 assay. The settings on record: dose 0.1-100 µM. It counts as functional, cell-based.
In assay [22] the target is T2, MUS81-ECE1 (Homo sapiens). The assay can be described thus: Inhibition of human GST-tagged MUS81-[…] expressed in Escherichia coli BL21(DE3)Rosetta2 cells using 3' FLAP as substrate at 40 uM.
Assay [23] addresses T2, MUS81-ECE1 (Homo sapiens). The assay can be described thus: Inhibition of human GST-tagged MUS81-[…] expressed in Escherichia coli BL21(DE3)Rosetta2 cells using nDS as substrate at 40 uM.
In assay [24] the test system is A549. The assay can be described thus: Chemosensitivity of bleomycin-treated human A549 cells assessed as reduction in cell viability at 0.1 to 100 uM incubated for 24 hrs CCK-8 assay. The settings on record: dose 0.1-100 µM. It counts as functional, cell-based.
The test system of assay [25] is A549. Put plainly: Chemosensitivity of cisplatin-treated human A549 cells assessed as reduction in cell viability at 0.1 to 100 uM incubated for 24 hrs CCK-8 assay. It counts as functional, cell-based. Particulars: dose 0.1-100 µM.

On MUS81-ECE2 [1], `O=C(N/N=C/c1cc(O)c(O)cc1O)c1cc2ccccc2cc1O` yielded an IC50 of 2900 nM. For the same compound, the inhibition entry in assay [2], in assay [3], in assay [4], in assay [5], in [6] and in assay [7] was “Dose-Dependent Effect” in each case. In addition, the K came to 6980 M⁻¹ s⁻¹ in assay [8], 0.004 s⁻¹ in [9], 6420 M⁻¹ s⁻¹ in [10] and 0.003 s⁻¹ in [11]. Besides, the Kd on MUS81-ECE2 [12] amounted to 605 nM. Moreover, the outcome (in assay [13]; with MDA-MB-231 [16]; in the assay with MDA-MB-231 [17]) was Active. For the same compound, the inhibition entry in the assay with HeLa [14] and with HeLa [15] was “Active” each time. Further, the outcome in the assay on HeLa [18], in the assay with HeLa [19], in the assay on HepG2 [20] and in the assay with HepG2 [21] was inactive.

`O=C(N/N=C/c1ccc(O)c(O)c1)c1cc2ccccc2cc1O` [DYNASORE]: the K in assay [8] amounted to 934 M⁻¹ s⁻¹; in assay [9] it was 0.005 s⁻¹; in assay [10], 1390 M⁻¹ s⁻¹; in [11], 0.005 s⁻¹. Also, at MUS81-ECE2 [12], the Kd is 4180 nM. In addition, the inhibition entry in [22] and in [23] was “Active” each time. Further, the inhibition entry in the assay on HeLa [14] and in the assay with HeLa [15] was “inactive” throughout. For the same compound, the result with A549 [24] and in the assay with A549 [25] was Active. Moreover, the result in the assay on HeLa [18], in the assay with HeLa [19], in the assay on HepG2 [20] and in the assay on HepG2 [21] was inactive.
